The target of assay [1] is T1, recombinant human JAK1 kinase domain protein (Residues 854-1154) (Homo sapiens, UniProt P23458).
T1 construct: human JAK1 kinase domain protein (Residues 854-1154); purchased Proteros Biostructures GmbH (Martinsried, Germany); host or cells: insect cells
Briefly: JAK1 biochemical assay (LabChip mobility shift, Ki). Particulars: read-out: Biochem JAK1 Ki.

For assay [2], the system named is IL-13-stimulated STAT6 phosphorylation in human lung bronchial epithelial BEAS-2B cell line. Briefly: P-STAT6 BEAS-2B + IL-13 cell assay. The conditions noted are these: Homo sapiens, BEAS-2B, BEAS2B cells, IL13 stimulation; read-out: Cellular JAK1 PSTAT6 BEAS2B + IL13. Format: cell-based. The gist of the method: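 Phospho-STAT6 (Tyr641) was quantified in lysates by MSD electrochemiluminescence after human IL-13 challenge (250 ng/mL stock, 15 min, 37 °C). Before that, BEAS-2B cells cultured 48 h had 1 h compound exposure over 10 concentrations. Percent of control was fitted to a four-parameter logistic model to give IC50.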

Assay [3] has as its target Recombinant human JAK2 kinase domain protein (Residues 812-1132) (Homo sapiens, UniProt O60674). Description: JAK2 biochemical assay (LabChip mobility shift, Ki). Particulars: Biochem JAK2 Ki.

The results in this text go back to patent US12528812B2 (Genentech, Inc., priority 2020, dated 2026).

Recombinant human JAK2 kinase domain protein (Residues 812-1132), sequence (O60674 812-1132): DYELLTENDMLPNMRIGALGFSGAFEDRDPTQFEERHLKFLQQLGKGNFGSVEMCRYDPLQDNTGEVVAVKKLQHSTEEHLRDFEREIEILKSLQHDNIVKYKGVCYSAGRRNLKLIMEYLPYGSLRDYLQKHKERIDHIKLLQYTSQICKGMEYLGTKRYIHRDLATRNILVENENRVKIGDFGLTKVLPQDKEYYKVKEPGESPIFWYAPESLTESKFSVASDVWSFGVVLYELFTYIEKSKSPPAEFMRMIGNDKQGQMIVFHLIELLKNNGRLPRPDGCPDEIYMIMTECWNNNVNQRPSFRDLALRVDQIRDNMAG
T1 sequence (P23458 854-1154): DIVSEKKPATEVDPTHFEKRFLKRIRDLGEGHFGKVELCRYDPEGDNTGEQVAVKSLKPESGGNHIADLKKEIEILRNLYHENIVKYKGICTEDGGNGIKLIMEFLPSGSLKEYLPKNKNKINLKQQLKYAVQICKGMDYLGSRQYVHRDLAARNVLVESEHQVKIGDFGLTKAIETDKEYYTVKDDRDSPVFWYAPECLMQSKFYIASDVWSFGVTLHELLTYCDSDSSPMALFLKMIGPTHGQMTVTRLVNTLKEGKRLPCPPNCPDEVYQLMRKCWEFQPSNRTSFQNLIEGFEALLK

For `CN(C)C(=O)c1ccc(Oc2ccc(OC(F)F)c(-c3nn(C)cc3NC(=O)c3cnn4cccnc34)c2)cc1` [Example 88, N-[3-[2-(difluoromethoxy)-5-[4-(dimethylcarbamoyl)phenoxy]phenyl]-1-methyl-pyrazol-4-yl]pyrazolo[1,5-a]pyrimidine-3-carboxamide], the Ki in assay [1] turned out to be 0.31 nM; in assay [3], 0.24 nM. In addition, in assay [2], the IC50 was found to be 15 nM.

For `CN1CCN(C(=O)Cn2cc(Oc3ccc(OC(F)F)c(-c4nn(C)cc4NC(=O)c4cnn5cccnc45)c3)cn2)CC1` [Example 90, N-[3-[2-(difluoromethoxy)-5-[1-[2-(4-methylpiperazin-1-yl)-2-oxo-ethyl]pyrazol-4-yl]oxy-phenyl]-1-methyl-pyrazol-4-yl]pyrazolo[1,5-a]pyrimidine-3-carboxamide], the Ki in assay [1] came out at 0.59 nM; in assay [3], 0.31 nM. Also, the IC50 in assay [2] worked out at 52 nM.

For `Cn1cc(NC(=O)c2cnn3cccnc23)c(-c2cc(Oc3cc(CNCCO)ccc3F)ccc2OC(F)F)n1` [Example 91, N-[3-[2-(difluoromethoxy)-5-[2-fluoro-5-[(2-hydroxyethylamino)methyl]phenoxy]phenyl]-1-methyl-pyrazol-4-yl]pyrazolo[1,5-a]pyrimidine-3-carboxamide], the inhibitory constant (Ki) in assay [1] worked out at 0.32 nM; in assay [3], 0.4 nM. In addition, the IC50 in assay [2] was 17 nM.

Take `CN(CCN1CCOCC1)C(=O)c1cccc(Oc2ccc(OC(F)F)c(-c3nn(C)cc3NC(=O)c3cnn4cccnc34)c2)c1` [Example 92, N-[3-[2-(difluoromethoxy)-5-[3-[methyl(2-morpholinoethyl)carbamoyl]phenoxy]phenyl]-1-methyl-pyrazol-4-yl]pyrazolo[1,5-a]pyrimidine-3-carboxamide]: the Ki in assay [1] stood at 1.1 nM; in assay [3], 0.68 nM. For the same compound, the IC50 in assay [2] amounted to 56 nM.

For `Cn1cc(NC(=O)c2cnn3cccnc23)c(-c2cc(Oc3cc(F)cc(C4(O)CNC4)c3)ccc2OC(F)F)n1` [Example 95, N-[3-[2-(difluoromethoxy)-5-[3-fluoro-5-(3-hydroxyazetidin-3-yl)phenoxy]phenyl]-1-methyl-pyrazol-4-yl]pyrazolo[1,5-a]pyrimidine-3-carboxamide], the Ki in assay [1] is 0.17 nM; in assay [3] it was 0.23 nM. Besides, in assay [2], the IC50 worked out at 110 nM.

As to `CN1CC(O)(c2cccc(Oc3ccc(OC(F)F)c(-c4nn(CCO)cc4NC(=O)c4cnn5cccnc45)c3)c2)C1` [Example 97, N-[3-[2-(difluoromethoxy)-5[3-(3-hydroxy-1-methyl-azetidin-3-yl)phenoxy]phenyl]-1-(2-hydroxyethyl)pyrazol-4-yl]pyrazolo[1,5-a]pyrimidine-3-carboxamide], the Ki turned out to be 0.85 nM in assay [1] and 0.6 nM in assay [3]. Also, the IC50 in assay [2] was 300 nM.

`CN1CC(O)(c2cccc(Oc3ccc(OC(F)F)c(-c4nn(C5CCOCC5)cc4NC(=O)c4cnn5cccnc45)c3)c2)C1` [Example 98, N-[3-[2-(difluoromethoxy)-5-[3-(3-hydroxy-l-methyl-azetidin-3-yl)phenoxy]phenyl]-1-tetrahydropyran-4-yl-pyrazol-4-yl]pyrazolo[1,5-a]pyrimidine-3-carboxamide]: the inhibitory constant (Ki) in assay [1] was 0.87 nM; in assay [3] it was 2.8 nM. Further, the IC50 in assay [2] was 61 nM.

For `Cn1cc(NC(=O)c2cnn3cccnc23)c(-c2cc(Oc3cc(Cl)cc(C4(O)CNC4)c3)ccc2OC(F)F)n1` [Example 99, N-[3-[5-[3-chloro-5-(3-hydroxyazetidin-3-yl)phenoxy]-2-(difluoromethoxy)phenyl]-1-methyl-pyrazol-4-yl]pyrazolo[1,5-a]pyrimidine-3-carboxamide], the inhibition constant (Ki) in assay [1] amounted to 0.19 nM; in assay [3] it was 0.31 nM. The IC50 in assay [2] is 78 nM.

With `CN1CC(O)(c2cccc(Oc3ccc(OC(F)F)c(-c4nn(C5COC5)cc4NC(=O)c4cnn5cccnc45)c3)c2)C1` [Example 100, N-[3-[2-(difluoromethoxy)-5-[3-(3-hydroxy-1-methyl-azetidin-3-yl)phenoxy]phenyl]-1-(oxetan-3-yl)pyrazol-4-yl]pyrazolo[1,5-a]pyrimidine-3-carboxamide], the Ki is 0.4 nM in assay [1] and 0.46 nM in assay [3]. Moreover, the IC50 in assay [2] stood at 46 nM.

For `Cc1cc(Oc2ccc(OC(F)F)c(-c3nn(C)cc3NC(=O)c3cnn4cccnc34)c2)cc(C2(O)CNC2)c1` [Example 101, N-[3-[2-(difluoromethoxy)-5-[3-(3-hydroxyazetidin-3-yl)-5-methyl-phenoxy]phenyl]-1-methyl-pyrazol-4-yl]pyrazolo[1,5-a]pyrimidine-3-carboxamide], the results for the Ki in assay [1] and in assay [3] were 0.2 nM and 0.23 nM, respectively. In addition, in assay [2], the IC50 stood at 180 nM.

Regarding `Cc1cc(Oc2ccc(OC(F)F)c(-c3nn(C)cc3NC(=O)c3cnn4cccnc34)c2)cc(C2(O)CN(C)C2)c1` [Example 102, N-[3-[2-(difluoromethoxy)-5-[3-(3-hydroxy-1-methyl-azetidin-3-yl)-5-methyl-phenoxy]phenyl]-1-methyl-pyrazol-4-yl]pyrazolo[1,5-a]pyrimidine-3-carboxamide], the results for the Ki in assay [1] and in assay [3] were 0.44 nM and 0.43 nM, respectively. The IC50 in assay [2] amounted to 24 nM.

For the compound `Cn1cc(NC(=O)c2cnn3cccnc23)c(-c2cc(Oc3ccc(F)c(C4(O)CNC4)c3)ccc2OC(F)F)n1` [Example 103, N-[3-[2-(difluoromethoxy)-5-[4-fluoro-3-(3-hydroxyazetidin-3-yl)phenoxy]phenyl]-1-methyl-pyrazol-4-yl]pyrazolo[1,5-a]pyrimidine-3-carboxamide], the Ki was 0.48 nM in assay [1] and 0.54 nM in assay [3]. In addition, in assay [2], the IC50 is 260 nM.

Consider `CN1CC(O)(c2cc(Oc3ccc(OC(F)F)c(-c4nn(C)cc4NC(=O)c4cnn5cccnc45)c3)ccc2F)C1` [Example 104, N-[3-[2-(difluoromethoxy)-5-[4-fluoro-3-(3-hydroxy-1-methyl-azetidin-3-yl)phenoxy]phenyl]-1-methyl-pyrazol-4-yl]pyrazolo[1,5-a]pyrimidine-3-carboxamide], for which the Ki stood at 0.73 nM in assay [1] and 0.75 nM in assay [3]. For the same compound, the IC50 in assay [2] stood at 45 nM.

Take `Cn1cc(NC(=O)c2cnn3cccnc23)c(-c2cc(Oc3cc(C(F)(F)F)cc(C4(O)CNC4)c3)ccc2OC(F)F)n1` [Example 105, N-[3-[2-(difluoromethoxy)-5-[3-(3-hydroxyazetidin-3-yl)-5-(trifluoromethyl)phenoxy]phenyl]-1-methyl-pyrazol-4-yl]pyrazolo[1,5-a]pyrimidine-3-carboxamide]: the figures for the Ki in assay [1] and in assay [3] were 0.49 nM and 0.43 nM, respectively. The IC50 in assay [2] worked out at 81 nM.

For the compound `CN1CC(O)(c2cc(Oc3ccc(OC(F)F)c(-c4nn(C)cc4NC(=O)c4cnn5cccnc45)c3)cc(C(F)(F)F)c2)C1` [Example 106, N-[3-[2-(difluoromethoxy)-5-[3-(3-hydroxy-1-methyl-azetidin-3-yl)-5-(trifluoromethyl)phenoxy]phenyl]-1-methyl-pyrazol-4-yl]pyrazolo[1,5-a]pyrimidine-3-carboxamide], the Ki in assay [1] turned out to be 1.6 nM; in assay [3], 1.7 nM. Also, the IC50 in assay [2] is 74 nM.
